# Laboratory results as given in article PMC3220188 (Nature Communications, 2010).
# Read-outs that look alike come from different tables or passages of the source. Marks after values point to notes of the source that are not given here.
# How the values were obtained:
# [1] = test system: M. tuberculosis H37Rv; type: cell-based, Mycobacterium tuberculosis; conditions: for ATP pool depleted: in the presence of glycerol, 24 h after treatment; for very rapid ATP depletion in M. tuberculosis: reference compounds, 24 h
# [2] = test system: M. tuberculosis H37Rv; test: Metabolomic profiling by LC/MS; type: cell-based, Mycobacterium tuberculosis; conditions: 24 h after treatment, in the presence of glycerol
# [3] = test system: MTB pMV262-rv0577; test: microbe, parasite or virus in culture; type: cell-based; conditions: Mycobacterium tuberculosis, read-out: MTB pMV262-rv0577 MIC50
# [4] = test system: M. tuberculosis H37Rv; test: microbe, parasite or virus in culture; type: cell-based, Mycobacterium tuberculosis
# [5] = in vivo; type: in vivo, CD-1 female mice; conditions: for fAUC/MIC / fT>MIC: corrected for plasma protein binding; for T>MIC: percentage of dosing interval with plasma levels above MIC
# [6] = in vitro; type: cell-based; conditions: human
# [7] = test system: Rv0577, Rv0911, Rv2298 and lldD2; type: binding, M. bovis BCG
# [8] = Mycobacterium tuberculosis, H37RV
# [9] = Mycobacterium tuberculosis, H37RV, read-out: MTB H37Rv MIC50
# [10] = female, CD-1, mouse, in vivo, po, 25 mg/kg
# [11] = mouse, single oral dose 25 mg kg^−1, lung
# [12] = female, CD-1, mouse, in vivo, po, 100 mg/kg
smiles,measurement,setting,value
"Cc1ccc(NC(=O)c2ccccc2)cc1Nc1nccn1-c1cc(NC2CCCC2)ncn1 [Compound 1, N-(3-(1-(6-(Cyclopentylamino)pyrimidin-4-yl)-1H-imidazol-2-ylamino)-4-methylphenyl)benzamide]",ATP pool depleted,[1],> 75%
same,accumulation of glycerol phosphate,[2],significant accumulation
same,MIC50,[3],2.32 ± 0.4 µM
same,MIC50,[4]; [8],0.75 ± 0.32 µM
same,MIC50,[4]; [9],0.35 ± 0.1 µM
same,AUC,[5]; [10],23400 ng·h/mL
same,Cmax,[5]; [10],4000 ng/mL
same,Tmax,[5]; [10],1 h
same,bioavailability,[5]; [10],100%
same,half-life,[5]; [10],2.5 h
same,Lung AUC/MIC,"[5]; mouse, 25 mg kg^−1, lung",31.2
same,Lung T>MIC,"[5]; mouse, 25 mg kg^−1, lung",32
same,fAUC/MIC,"[5]; mouse, 25 mg kg^−1",8.6
same,fT>MIC,"[5]; mouse, 25 mg kg^−1",10%
same,T>MIC,"[5]; mouse, 25 mg kg^−1",42%
same,Lung AUC,[5]; [11],10.2 µg·h/g
same,CC50,[6],> 50 µM
"c1ccc(-c2nc3cc(Nc4nccn4-c4cc(NC5CCCC5)ncn4)ccc3[nH]2)cc1 [Compound 2, N-(1-(6-(Cyclopentylamino)pyrimidin-4-yl)-1H-imidazol-2-yl)-2-phenyl-1H-benzo[d]imidazol-5-amine]",ATP pool depleted,[1],> 75%
same,accumulation of glycerol phosphate,[2],significant accumulation
same,MIC50,[3],3.53 ± 1.13 µM
same,MIC50,[4]; [8],0.57 ± 0.23 µM
same,MIC50,[4]; [9],0.34 ± 0.11 µM
same,AUC,[5]; [10],10600 ng·h/mL
same,Cmax,[5]; [10],3800 ng/mL
same,Tmax,[5]; [10],0.5 h
same,bioavailability,[5]; [10],100%
same,half-life,[5]; [10],2.2 h
same,Lung AUC/MIC,"[5]; mouse, 25 mg kg^−1, lung",44.8
same,Lung T>MIC,"[5]; mouse, 25 mg kg^−1, lung",54
same,fAUC/MIC,"[5]; mouse, 25 mg kg^−1",17.8
same,fT>MIC,"[5]; mouse, 25 mg kg^−1",26%
same,T>MIC,"[5]; mouse, 25 mg kg^−1",38%
same,Lung AUC,[5]; [11],10.7 µg·h/g
same,CC50,[6],> 50 µM
"Cc1ccc(C(=O)N2CCOCC2)cc1Nc1nccn1-c1cc(NC2CC2)ncn1 [Compound 3, (3-(1-(6-(Cyclopropylamino)pyrimidin-4-yl)-1H-imidazol-2-ylamino)-4-methylphenyl)(morpholino)methanone]",MIC50,[4]; [8],0.036 ± 0.04 µM
same,AUC,[5]; [10],12400 ng·h/mL
same,Cmax,[5]; [10],3000 ng/mL
same,Tmax,[5]; [10],0.5 h
same,bioavailability,[5]; [10],50%
same,half-life,[5]; [10],2.3 h
same,AUC,[5]; [12],59300 ng·h/mL
same,Cmax,[5]; [12],8900 ng/mL
same,Tmax,[5]; [12],0.5 h
same,bioavailability,[5]; [12],50%
same,half-life,[5]; [12],3 h
same,Lung AUC/MIC,"[5]; mouse, 25 mg kg^−1, lung",1070.6
same,Lung T>MIC,"[5]; mouse, 25 mg kg^−1, lung",100
same,fAUC/MIC,"[5]; mouse, 25 mg kg^−1",113.7
same,fT>MIC,"[5]; mouse, 25 mg kg^−1",47%
same,T>MIC,"[5]; mouse, 25 mg kg^−1",73%
same,Lung T>MIC,"[5]; mouse, 100 mg kg^−1, lung",100
same,Lung AUC/MIC,"[5]; mouse, 100 mg kg^−1, lung, extrapolated assuming lung exposure proportional to dose",4654.8 ^*
same,fAUC/MIC,"[5]; mouse, 100 mg kg^−1",544.6
same,fT>MIC,"[5]; mouse, 100 mg kg^−1",82%
same,T>MIC,"[5]; mouse, 100 mg kg^−1",100%
same,exposure versus dose,"[5]; mouse, 25 and 100 mg kg^−1",proportional to dose
same,Lung AUC,[5]; [11],17.5 µg·h/g
same,CC50,[6],> 50 µM
"Cc1ccc(NC(=O)c2cccc(NCCN)c2)cc1Nc1nccn1-c1cc(NC2CC2)ncn1 [Compound 4, 3-(2-Aminoethylamino)-N-(3-(1-(6-(cyclopropylamino)pyrimidin-4-yl)-1H-imidazol-2-ylamino)-4-methylphenyl)benzamide]",binding of candidate proteins to sepharose-linked 4 in the presence of free 4,[7],dramatically decreased
same,MIC50,[4]; [8],0.21 ± 0.01 µM
"O=C(CO)COP(=O)(O)O [DHAP, dihydroxyacetone phosphate]",MIC50,[4],1200 µM
"CC[C@@H](CO)NCCN[C@@H](CC)CO [EMB, ethambutol, reference compound]",AUC,[5]; [12],8000 ng·h/mL
same,Cmax,[5]; [12],2500 ng/mL
same,Tmax,[5]; [12],0.5 h
same,half-life,[5]; [12],1.8 h
same,Lung AUC,"[5]; mouse, 100 mg kg^−1, lung",145 µg·h/g
same,Lung AUC/MIC,"[5]; mouse, 100 mg kg^−1, lung",247
same,fAUC/MIC,"[5]; mouse, 100 mg kg^−1",10
same,fT>MIC,"[5]; mouse, 100 mg kg^−1",15%
same,T>MIC,"[5]; mouse, 100 mg kg^−1",17%
"NNC(=O)c1ccncc1 [Isoniazid, isoniazid, reference compound]",MIC50,[3],0.37 ± 0.05 µM
same,activity against M. tuberculosis in the absence of glycerol in the culture medium,[4],comparable
same,MIC50,[4]; [9],0.42 ± 0.03 µM
same,AUC,[5]; [10],52000 ng·h/mL
same,Cmax,[5]; [10],28000 ng/mL
same,fT>MIC,"[5]; mouse, 25 mg kg^−1",62%
same,T>MIC,"[5]; mouse, 25 mg kg^−1",68%
same,Tmax,"[5]; mouse, single oral dose 25 mg kg^−1, plasma",0.25 h
"[H]/N=C(/N)N[C@H]1[C@H](O)[C@@H](O)[C@H](O[C@@H]2O[C@@H](C)[C@](O)(C=O)[C@H]2O[C@@H]2O[C@@H](CO)[C@H](O)[C@@H](O)[C@@H]2NC)[C@@H](N/C(N)=N\[H])[C@@H]1O [Streptomycin, streptomycin, reference compound]",very rapid ATP depletion in M. tuberculosis,[1],not observed
same,MIC50,[3],0.12 ± 0.01 µM
same,activity against M. tuberculosis in the absence of glycerol in the culture medium,[4],comparable
same,MIC50,[4]; [9],0.18 ± 0.02 µM
O=P(O)(O)OCC(O)CO (centres unmarked) [glycerol phosphate],MIC50,[4],12500 µM
CC(=O)C=O [methylglyoxal],MIC50,[4],400 µM
"COc1c(N2C[C@@H]3CCCN[C@@H]3C2)c(F)cc2c(=O)c(C(=O)O)cn(C3CC3)c12 [moxifloxacin, reference compound]",very rapid ATP depletion in M. tuberculosis,[1],not observed
same,activity against M. tuberculosis in the absence of glycerol in the culture medium,[4],comparable
